These are literature values, as cited in US20090233840A1, “Modified Dynorphin Expression in Animals and Identification of Compounds for Treatment of Obesity and Diabetes” (priority 2004, published 2009).

The conditions of series [1]: not affected by naloxone or norBNI.
Series [2] deals with cultured cortical cells from Sprague Dawley rats. As to conditions: comparable to that induced by NMDA; resistant to naloxone.
For series [3] the following is noted: administered ICV.
For series [4] the following is noted: intracerebroventricularly.

“Dyn A(1-13) (YGGFLRRIRPKLK; Dynorphin A(1-13); UniProt P01213 207-219, looked up, fragment)”: the “potency in writhing assay” value in series [1] is recorded as “very potent”.

dynorphin A (2-17): the intracellular calcium concentration entry in series [2] is on record as “increase in intracellular calcium concentration”.

Turning to “dynorphin A (YGGFLRRIRPKLKWDNQ; Dynorphin A(1-17); UniProt P01213 207-223, looked up) [[Leu]-enkephalin-containing opioid peptide encoded by the preprodynorphin gene]”, the analgesic efficacy result in series [3] is given as “ineffective”. In series [4], the analgesic effect result is listed as “moderate analgesic effect”.
